Measured values taken from US20170190671A1, “BIS(ARYL)CATECHOL DERIVATIVES AS HERBICIDES” (E I DU PONT DE NEMOURS AND COMPANY, priority 2014, published 2017).

What was measured:
Assay in all cases: Test D postemergence
Assay type in all cases: in vivo
Settings in all cases: scale 0 to 100
[1] = test system: Italian ryegrass (Lolium multiflorum)
Description: (§1) Seeds of plant species selected from bluegrass (annual bluegrass, Poa annua), blackgrass (Alopecurus myosuroides), canarygrass (Phalaris minor), chickweed (common chickweed, Stellaria media), cutleaf geranium (Geranium dissectum), galium (catchweed bedstraw, Galium aparine), downy bromegrass (Bromus tectorum), field poppy (Papaver rhoeas), field violet (Viola arvensis), green foxtail (Setaria viridis), deadnettle (henbit deadnettle, Lamium amplexicaule), Italian ryegrass (Lolium multiflorum), kochia (Kochia scoparia), lambsquarters (Chenopodium album), oilseed rape (Brassica napus), pigweed (Amaranthus retroflexus), chamomile (scentless chamomile, Matricaria inodora), Russian thistle (Salsola kali), speedwell (bird's-eye speedwell, Veronica persica), spring barley (Hordeum vulgare), spring wheat (Triticum aestivum), wild buckwheat (Polygonum convolvulus), wild mustard (Sinapis arvensis), wild oat (Avenafatua), wild radish (Raphanus raphanistrum), windgrass (Apera spica-venti), winter barley (Hordeum vulgare), and winter wheat (Triticum aestivum) were planted into a silt loam soil and treated preemergence with test chemicals formulated in a non-phytotoxic solvent mixture which included a surfactant.
(§2) At the same time, these species were planted in pots containing Redi-Earth® planting medium (Scotts Company, 14111 Scottslawn Road, Marysville, Ohio 43041) comprising spaghnum peat moss, vermiculite, wetting agent and starter nutrients and treated with postemergence applications of the test chemicals formulated in the same manner. Plants ranged in height from 2 to 18 cm (1- to 4-leaf stage). Treated plants and controls were maintained in a controlled growth environment for 14 to 21 days after which time all species were compared to controls and visually evaluated. Plant response ratings, summarized in Table D, are based on a scale of 0 to 100 where 0 is no effect and 100 is complete control. A dash (-) response means no test result.

[2] = test system: field poppy (Papaver rhoeas)
Description: as §1, §2

[3] = test system: downy bromegrass (Bromus tectorum)
Description: as §1, §2

[4] = test system: galium (catchweed bedstraw, Galium aparine)
Description: as §1, §2

[5] = test system: wild buckwheat (Polygonum convolvulus)
Description: as §1, §2

[6] = test system: winter barley (Hordeum vulgare)
Description: as §1, §2

kochia (Kochia scoparia) = test system: kochia (Kochia scoparia)
Description: as §1, §2

[7] = test system: green foxtail (Setaria viridis)
Description: as §1, §2

[8] = test system: canarygrass (Phalaris minor)
Description: as §1, §2

[9] = test system: oilseed rape (Brassica napus)
Description: as §1, §2

[10] = test system: chamomile (scentless chamomile, Matricaria inodora)
Description: as §1, §2

[11] = test system: bluegrass (annual bluegrass, Poa annua)
Description: as §1, §2

[12] = test system: blackgrass (Alopecurus myosuroides)
Description: as §1, §2

[13] = test system: wild mustard (Sinapis arvensis)
Description: as §1, §2

[14] = test system: speedwell (bird's-eye speedwell, Veronica persica)
Description: as §1, §2

[15] = test system: wild radish (Raphanus raphanistrum)
Description: as §1, §2

[16] = test system: lambsquarters (Chenopodium album)
Description: as §1, §2

[17] = test system: field violet (Viola arvensis)
Description: as §1, §2

[18] = test system: spring wheat (Triticum aestivum)
Description: as §1, §2

[19] = test system: pigweed (Amaranthus retroflexus)
Description: as §1, §2

[20] = test system: Russian thistle (Salsola kali)
Description: as §1, §2

## Fc1cnc(Oc2c(Br)cccc2Oc2ncc(Cl)cn2)nc1 [Compound 22]
[1]; 16 g ai/ha
  Plant response rating, Ryegrass, Italian: 15
[1]; 31 g ai/ha
  Plant response rating, Ryegrass, Italian: 20
[1]; 62 g ai/ha
  Plant response rating, Ryegrass, Italian: 25
[1]; 125 g ai/ha
  Plant response rating, Ryegrass, Italian: 35
[2]; 16 g ai/ha
  Plant response rating, Field Poppy: 55
[2]; 31 g ai/ha
  Plant response rating, Field Poppy: 65
[2]; 62 g ai/ha
  Plant response rating, Field Poppy: 70
[2]; 125 g ai/ha
  Plant response rating, Field Poppy: 70
[3]; 16 g ai/ha
  Plant response rating, Bromegrass, Downy: 5
[3]; 31 g ai/ha
  Plant response rating, Bromegrass, Downy: 10
[3]; 62 g ai/ha
  Plant response rating, Bromegrass, Downy: 20
[3]; 125 g ai/ha
  Plant response rating, Bromegrass, Downy: 25
[4]; 16 g ai/ha
  Plant response rating, Galium: 70
[4]; 31 g ai/ha
  Plant response rating, Galium: 60
[4]; 62 g ai/ha
  Plant response rating, Galium: 75
[4]; 125 g ai/ha
  Plant response rating, Galium: 85
[5]; 16 g ai/ha
  Plant response rating, Buckwheat, Wild: 55
[5]; 31 g ai/ha
  Plant response rating, Buckwheat, Wild: 65
[5]; 62 g ai/ha
  Plant response rating, Buckwheat, Wild: 70
[5]; 125 g ai/ha
  Plant response rating, Buckwheat, Wild: 80
[6]; 16 g ai/ha
  Plant response rating, Barley, Winter: 5
[6]; 31 g ai/ha
  Plant response rating, Barley, Winter: 10
[6]; 62 g ai/ha
  Plant response rating, Barley, Winter: 10
[6]; 125 g ai/ha
  Plant response rating, Barley, Winter: 15
Kochia (Kochia scoparia); 16 g ai/ha
  Plant response rating, Kochia: 40
Kochia (Kochia scoparia); 31 g ai/ha
  Plant response rating, Kochia: 45
Kochia (Kochia scoparia); 62 g ai/ha
  Plant response rating, Kochia: 60
Kochia (Kochia scoparia); 125 g ai/ha
  Plant response rating, Kochia: 70
[7]; 16 g ai/ha
  Plant response rating, Foxtail, Green: 10
[7]; 31 g ai/ha
  Plant response rating, Foxtail, Green: 15
[7]; 62 g ai/ha
  Plant response rating, Foxtail, Green: 25
[7]; 125 g ai/ha
  Plant response rating, Foxtail, Green: 30
[8]; 16 g ai/ha
  Plant response rating, Canarygrass: 10
[8]; 31 g ai/ha
  Plant response rating, Canarygrass: 10
[8]; 62 g ai/ha
  Plant response rating, Canarygrass: 20
[8]; 125 g ai/ha
  Plant response rating, Canarygrass: 25
[9]; 16 g ai/ha
  Plant response rating, Oilseed Rape: 15
[9]; 31 g ai/ha
  Plant response rating, Oilseed Rape: 45
[9]; 62 g ai/ha
  Plant response rating, Oilseed Rape: 70
[9]; 125 g ai/ha
  Plant response rating, Oilseed Rape: 80
[10]; 16 g ai/ha
  Plant response rating, Chamomile: 0
[10]; 31 g ai/ha
  Plant response rating, Chamomile: 0
[10]; 62 g ai/ha
  Plant response rating, Chamomile: 0
[10]; 125 g ai/ha
  Plant response rating, Chamomile: 5
[11]; 16 g ai/ha
  Plant response rating, Bluegrass: 0
[11]; 31 g ai/ha
  Plant response rating, Bluegrass: 5
[11]; 62 g ai/ha
  Plant response rating, Bluegrass: 15
[11]; 125 g ai/ha
  Plant response rating, Bluegrass: 40
[12]; 16 g ai/ha
  Plant response rating, Blackgrass: 20
[12]; 31 g ai/ha
  Plant response rating, Blackgrass: 30
[12]; 62 g ai/ha
  Plant response rating, Blackgrass: 35
[12]; 125 g ai/ha
  Plant response rating, Blackgrass: 40
[13]; 16 g ai/ha
  Plant response rating, Mustard, Wild: 35
[13]; 31 g ai/ha
  Plant response rating, Mustard, Wild: 40
[13]; 62 g ai/ha
  Plant response rating, Mustard, Wild: 55
[13]; 125 g ai/ha
  Plant response rating, Mustard, Wild: 75
[14]; 16 g ai/ha
  Plant response rating, Speedwell: 30
[14]; 31 g ai/ha
  Plant response rating, Speedwell: 40
[14]; 62 g ai/ha
  Plant response rating, Speedwell: 75
[14]; 125 g ai/ha
  Plant response rating, Speedwell: 90
[15]; 16 g ai/ha
  Plant response rating, Radish, Wild: 25
[15]; 31 g ai/ha
  Plant response rating, Radish, Wild: 35
[15]; 62 g ai/ha
  Plant response rating, Radish, Wild: 90
[15]; 125 g ai/ha
  Plant response rating, Radish, Wild: 90
[16]; 16 g ai/ha
  Plant response rating, Lambsquarters: 50
[16]; 31 g ai/ha
  Plant response rating, Lambsquarters: 40
[16]; 62 g ai/ha
  Plant response rating, Lambsquarters: 75
[16]; 125 g ai/ha
  Plant response rating, Lambsquarters: 70
[17]; 16 g ai/ha
  Plant response rating, Field Violet: 25
[17]; 31 g ai/ha
  Plant response rating, Field Violet: 40
[17]; 62 g ai/ha
  Plant response rating, Field Violet: 70
[17]; 125 g ai/ha
  Plant response rating, Field Violet: 75
[18]; 16 g ai/ha
  Plant response rating, Wheat, Spring: 5
[18]; 31 g ai/ha
  Plant response rating, Wheat, Spring: 5
[18]; 62 g ai/ha
  Plant response rating, Wheat, Spring: 10
[18]; 125 g ai/ha
  Plant response rating, Wheat, Spring: 15
[19]; 16 g ai/ha
  Plant response rating, Pigweed: 75
[19]; 31 g ai/ha
  Plant response rating, Pigweed: 80
[19]; 62 g ai/ha
  Plant response rating, Pigweed: 75
[19]; 125 g ai/ha
  Plant response rating, Pigweed: 95
[20]; 16 g ai/ha
  Plant response rating, Russian Thistle: 0
[20]; 31 g ai/ha
  Plant response rating, Russian Thistle: 5
[20]; 62 g ai/ha
  Plant response rating, Russian Thistle: 10
[20]; 125 g ai/ha
  Plant response rating, Russian Thistle: 15
